How the values were obtained:
[1] = n-octanol/PBS distribution coefficient (logD), shake-flask method; assay type: physicochemical; conditions: PBS pH 7.4; average ± SD
Method: DOTA-[Tyr^3]-octreotide (DOTATOC) was kindly provided by ITM Medical Isotopes GmbH, Munich, Germany.
Figure S3. Graphs of bars representing the percentage of intact radiopeptide investigated at 1 h, 4 h, and 24 h after preparation and dilution in saline (10 MBq/250 μL). (A) Percentage of intact radiopeptide in solution in the absence of ascorbic acid; (B) Percentage of intact radiopeptide in solution in the presence of ascorbic acid.
S4. Determination of n‐Octanol/PBS Distribution Coefficients (LogD Values) Purpose: The n‐octanol/PBS distribution coefficients (logD values) were assessed for each radiopeptide in order to investigate their hydrophilicity and enable comparison of […]
DOTA‐LM3) were determined by a shake‐flask method, as previously reported. […] The logD values were calculated as the logarithm of the ratio of counts per minute (cpm) measured in the n‐octanol phase relative to the cpm measured in the PBS pH 7.4 phase. The experiments were performed three times with five replicates for each radiopeptide and the logD value was expressed as the average ± standard deviation (SD) of the values obtained in each experiment. […]
Methods: A potential blockade of the uptake of [161Tb]Tb‐DOTA‐LM3 into AR42J cells was determined in the presence of >1000‐fold excess unlabeled DOTANOC or DOTA‐LM3 relative to the radiopeptide using the same protocol as reported in the main article. […]

AR42J tumor-bearing mice = experiment: Biodistribution in AR42J tumor-bearing nude mice; assay type: in vivo; conditions: i.v. 5 MBq, 1 nmol/mouse
Excerpt: Five-week-old female CD-1 nude mice were purchased from Charles River Laboratories (Sulzfeld, Germany).

C[C@@H](O)[C@@H]1NC(=O)[C@H](CCCCN)NC(=O)[C@@H](Cc2c[nH]c3ccccc23)NC(=O)[C@H](Cc2ccc(O)cc2)NC(=O)[C@@H](NC(=O)[C@@H](Cc2ccccc2)NC(=O)CN2CCN(CC(=O)O)CCN(CC(=O)O)CCN(CC(=O)O)CC2)CSSC[C@@H](C(=O)N[C@H](CO)[C@@H](C)O)NC1=O [[^177Lu]Lu-DOTATOC] [metal not drawn, reference compound]
logD value (n-octanol/PBS distribution coefficient) [1]: −3.1 ± 0.2
AR42J Tumor (AR42J tumor-bearing mice; 2 h p.i.): 8.9 ± 1.5 % IA/g
Adrenals (AR42J tumor-bearing mice; 2 h p.i.): 0.28 ± 0.08 % IA/g
Blood (AR42J tumor-bearing mice; 2 h p.i.): ≤ 0.10 % IA/g
Femur (AR42J tumor-bearing mice; 2 h p.i.): ≤ 0.10 % IA/g
Heart (AR42J tumor-bearing mice; 2 h p.i.): ≤ 0.10 % IA/g
Intestines (AR42J tumor-bearing mice; 2 h p.i.): 0.20 ± 0.05 % IA/g
Liver (AR42J tumor-bearing mice; 2 h p.i.): 0.26 ± 0.07 % IA/g
Lung (AR42J tumor-bearing mice; 2 h p.i.): 0.37 ± 0.06 % IA/g
Muscle (AR42J tumor-bearing mice; 2 h p.i.): ≤ 0.10 % IA/g
Pancreas (AR42J tumor-bearing mice; 2 h p.i.): 0.80 ± 0.13 % IA/g
Stomach (AR42J tumor-bearing mice; 2 h p.i.): 0.65 ± 0.11 % IA/g
Blood (AR42J tumor-bearing mice; 24 h p.i.): ≤ 0.10 % IA/g
Femur (AR42J tumor-bearing mice; 24 h p.i.): ≤ 0.10 % IA/g
Heart (AR42J tumor-bearing mice; 24 h p.i.): ≤ 0.10 % IA/g
Intestines (AR42J tumor-bearing mice; 24 h p.i.): ≤ 0.10 % IA/g
Kidneys (AR42J tumor-bearing mice; 24 h p.i.): 5.9 ± 2.1 % IA/g
Liver (AR42J tumor-bearing mice; 24 h p.i.): 0.13 ± 0.02 % IA/g
Muscle (AR42J tumor-bearing mice; 24 h p.i.): ≤ 0.10 % IA/g
Pancreas (AR42J tumor-bearing mice; 24 h p.i.): 0.21 ± 0.04 % IA/g
Spleen (AR42J tumor-bearing mice; 24 h p.i.): ≤ 0.10 % IA/g

C[C@@H](O)[C@@H]1NC(=O)[C@H](CCCCN)NC(=O)[C@@H](Cc2c[nH]c3ccccc23)NC(=O)[C@H](Cc2ccc(O)cc2)NC(=O)[C@@H](NC(=O)[C@@H](Cc2ccccc2)NC(=O)CN2CCN(CC(=O)O)CCN(CC(=O)O)CCN(CC(=O)O)CC2)CSSC[C@@H](C(=O)N[C@H](CO)[C@@H](C)O)NC1=O [[^161Tb]Tb-DOTATOC] [metal not drawn]
logD value (n-octanol/PBS distribution coefficient) [1]: −3.3 ± 0.2

Source: publication PMC8070648, “Simultaneous Visualization of ^161Tb- and ^177Lu-Labeled Somatostatin Analogues Using Dual-Isotope SPECT Imaging” (Pharmaceutics, 2021)
